Experimental findings from patent US12043632B2, “6-heteroaryloxy benzimidazoles and azabenzimidazoles as JAK2 inhibitors” (Ajax Therapeutics, Inc., priority 2020, dated 2024) are described below.

The target in this assay is T1, JAK2 (JH1domain-catalytic, Y1007F,Y1008F) kinase (Homo sapiens, UniProt O60674, Y1007F/Y1008F).
T1 construct: JAK2 (JH1domain-catalytic, Y1007F,Y1008F) kinase was expressed as N-terminal fusion; made in house; host or cells: transiently transfected HEK293 cells
T1 sequence (O60674 849-1124 Y1007F/Y1008F limits assumed): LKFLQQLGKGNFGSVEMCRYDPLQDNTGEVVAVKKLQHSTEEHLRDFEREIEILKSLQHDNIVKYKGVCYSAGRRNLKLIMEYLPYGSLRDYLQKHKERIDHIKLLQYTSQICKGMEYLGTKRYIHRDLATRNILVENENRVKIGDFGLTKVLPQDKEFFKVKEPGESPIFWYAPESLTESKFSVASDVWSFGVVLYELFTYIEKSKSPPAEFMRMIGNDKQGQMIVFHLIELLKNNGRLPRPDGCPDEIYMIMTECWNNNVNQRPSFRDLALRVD
As to the kind of experiment: JAK2 JH1 Domain Binding Assay. As to conditions: qPCR readout. Background: Quantitative PCR measures a nucleic acid by following its amplification.
For `Cn1cc(C(F)(F)F)cc(Nc2nc3ncc(Oc4cnc5[nH]ccc5c4)c(C#N)c3n2C)c1=O` [Example I-265, 6-((1H-pyrrolo[2,3-b]pyridin-5-yl)oxy)-1-methyl-2-((1-methyl-2-oxo-5-(trifluoromethyl)-1,2-dihydropyridin-3-yl)amino)-1H-imidazo[4,5-b]pyridine-7-carbonitrile], the Kd (usually the constant that tells how readily two partners part at equilibrium) was less than 10 nM.
For `Cn1c(F)c(C2CC2)cc(Nc2nc3ncc(Oc4cnn5ccncc45)c(Cl)c3n2C)c1=O` [Example I-266, 3-((7-chloro-1-methyl-6-(pyrazolo[1,5-a]pyrazin-3-yloxy)-1H-imidazo[4,5-b]pyridin-2-yl)amino)-5-cyclopropyl-6-fluoro-1-methylpyridin-2(1H)-one] the value was less than 10 nM; for `Cc1nc(Nc2nc3ncc(Oc4cnn5ccncc45)c(Cl)c3n2C)nc(C)c1N1CCC1` [Example I-268, N-(5-(azetidin-1-yl)-4,6-dimethylpyrimidin-2-yl)-7-chloro-1-methyl-6-(pyrazolo[1,5-a]pyrazin-3-yloxy)-1H-imidazo[4,5-b]pyridin-2-amine], 50 to 1000 nM.
Regarding `CN(C)[C@@H]1CCN(Cc2cc(Nc3nc4ncc(Oc5cnn6ccncc56)c(Cl)c4n3C)cc(C(F)(F)F)c2)C1` [Example I-271, (R)-7-chloro-N-(3-((3-(dimethylamino)pyrrolidin-1-yl)methyl)-5-(trifluoromethyl)phenyl)-1-methyl-6-(pyrazolo[1,5-a]pyrazin-3-yloxy)-1H-imidazo[4,5-b]pyridin-2-amine], the Kd is less than 10 nM.
For `COCCOc1nccn2ncc(Oc3cnc4nc(Nc5cc(C(F)(F)F)n(C6CC7(COC7)C6)n5)n(C)c4c3Cl)c12` [Example I-273, N-(1-(2-oxaspiro[3.3]heptan-6-yl)-5-(trifluoromethyl)-1H-pyrazol-3-yl)-7-chloro-6-((4-(2-methoxyethoxy)pyrazolo[1,5-a]pyrazin-3-yl)oxy)-1-methyl-1H-imidazo[4,5-b]pyridin-2-amine] the value was 10 to 50 nM; for `CN(C)c1cc(Nc2nc3ncc(Oc4cnn5ccncc45)c(Cl)c3n2C)cc(C(F)(F)F)n1` [Example I-274, N^4-(7-chloro-1-methyl-6-(pyrazolo[1,5-a]pyrazin-3-yloxy)-1H-imidazo[4,5-b]pyridin-2-yl)-N^2,N^2-dimethyl-6-(trifluoromethyl)pyridine-2,4-diamine], 10 to 50 nM; for `CNc1nccn2ncc(Oc3cnc4nc(Nc5cc(OCC6CN(C)C6)cc(C(F)(F)F)c5)n(C)c4c3Cl)c12` [Example I-275, 7-chloro-1-methyl-6-((4-(methylamino)pyrazolo[1,5-a]pyrazin-3-yl)oxy)-N-(3-((1-methylazetidin-3-yl)methoxy)-5-(trifluoromethyl)phenyl)-1H-imidazo[4,5-b]pyridin-2-amine], 10 to 50 nM.
For `CNc1nccn2ncc(Oc3cnc4nc(Nc5cc(C(F)(F)F)n([C@@H]6CCOC6)n5)n(C)c4c3Cl)c12` [Example I-276, (R)-7-chloro-1-methyl-6-((4-(methylamino)pyrazolo[1,5-a]pyrazin-3-yl)oxy)-N-(1-(tetrahydrofuran-3-yl)-5-(trifluoromethyl)-1H-pyrazol-3-yl)-1H-imidazo[4,5-b]pyridin-2-amine] the value was 10 to 50 nM; for `Cn1c(Nc2cc(CN3CCCC3)cc(C(F)(F)F)c2)nc2ncc(Oc3cnn4ccncc34)c(Cl)c21` [Example I-277, 7-chloro-1-methyl-6-(pyrazolo[1,5-a]pyrazin-3-yloxy)-N-(3-(pyrrolidin-1-ylmethyl)-5-(trifluoromethyl)phenyl)-1H-imidazo[4,5-b]pyridin-2-amine], less than 10 nM.
For `CC(=O)N1CC2(CC(n3nc(Nc4nc5ncc(Oc6cnn7ccccc67)c(Cl)c5n4C)cc3C(F)(F)F)C2)C1` [Example I-278, 1-(6-(3-((7-chloro-1-methyl-6-(pyrazolo[1,5-a]pyridin-3-yloxy)-1H-imidazo[4,5-b]pyridin-2-yl)amino)-5-(trifluoromethyl)-1H-pyrazol-1-yl)-2-azaspiro[3.3]heptan-2-yl)ethan-1-one] the value was less than 10 nM; for `Cn1cc(C(F)(F)F)cc(Nc2nc3ncc(Oc4cnn5ccc(N6CCOCC6)cc45)c(C#N)c3n2C)c1=O` [Example I-281, 1-methyl-2-((1-methyl-2-oxo-5-(trifluoromethyl)-1,2-dihydropyridin-3-yl)amino)-6-((5-morpholinopyrazolo[1,5-a]pyridin-3-yl)oxy)-1H-imidazo[4,5-b]pyridine-7-carbonitrile], less than 10 nM.
The compound `CNc1nccn2ncc(Oc3cnc4nc(Nc5cc(CN6CC[C@@H](N(C)C)C6)cc(C(F)(F)F)c5)n(C)c4c3Cl)c12` [Example I-282, (R)-7-chloro-N-(3-((3-(dimethylamino)pyrrolidin-1-yl)methyl)-5-(trifluoromethyl)phenyl)-1-methyl-6-((4-(methylamino)pyrazolo[1,5-a]pyrazin-3-yl)oxy)-1H-imidazo[4,5-b]pyridin-2-amine] registered a Kd of 10 to 50 nM.
The figure for `CN(C)[C@@H]1CCN(Cc2cc(C(F)(F)F)cc(Nc3nc4ncc(Oc5cnn6ccncc56)c(Cl)c4n3C)c2F)C1` [Example I-283, (R)-7-chloro-N-(3-((3-(dimethylamino)pyrrolidin-1-yl)methyl)-2-fluoro-5-(trifluoromethyl)phenyl)-1-methyl-6-(pyrazolo[1,5-a]pyrazin-3-yloxy)-1H-imidazo[4,5-b]pyridin-2-amine] is 10 to 50 nM; for `CNc1nccn2ncc(Oc3cnc4nc(Nc5cc(CN6CCCC6)cc(C(F)(F)F)c5)n(C)c4c3Cl)c12` [Example I-284, 7-chloro-1-methyl-6-((4-(methylamino)pyrazolo[1,5-a]pyrazin-3-yl)oxy)-N-(3-(pyrrolidin-1-ylmethyl)-5-(trifluoromethyl)phenyl)-1H-imidazo[4,5-b]pyridin-2-amine] it is 10 to 50 nM.
For `CN(C)[C@H]1CCN(Cc2cc(C(F)(F)F)cc(Nc3nc4ncc(Oc5cnn6ccncc56)c(Cl)c4n3C)c2F)C1` [Example I-285, (S)-7-chloro-N-(3-((3-(dimethylamino)pyrrolidin-1-yl)methyl)-2-fluoro-5-(trifluoromethyl)phenyl)-1-methyl-6-(pyrazolo[1,5-a]pyrazin-3-yloxy)-1H-imidazo[4,5-b]pyridin-2-amine] the value was 10 to 50 nM; for `CNc1nccn2ncc(Oc3cnc4nc(Nc5cc(CN6CC[C@H](N(C)C)C6)cc(C(F)(F)F)c5)n(C)c4c3Cl)c12` [Example I-286, (S)-7-chloro-N-(3-((3-(dimethylamino)pyrrolidin-1-yl)methyl)-5-(trifluoromethyl)phenyl)-1-methyl-6-((4-(methylamino)pyrazolo[1,5-a]pyrazin-3-yl)oxy)-1H-imidazo[4,5-b]pyridin-2-amine], 10 to 50 nM; for `Cc1nc(Nc2nc3ncc(Oc4cnn5ccncc45)c(Cl)c3n2C)nc(C)c1N1CCCC1` [Example I-287, 7-chloro-N-(4,6-dimethyl-5-(pyrrolidin-1-yl)pyrimidin-2-yl)-1-methyl-6-(pyrazolo[1,5-a]pyrazin-3-yloxy)-1H-imidazo[4,5-b]pyridin-2-amine], 10 to 50 nM.
For `Cn1cc(C(F)(F)F)cc(Nc2nc3ncc(Oc4cnc5[nH]cc(F)c5c4)c(Cl)c3n2C)c1=O` [Example I-288, 3-((7-chloro-6-((3-fluoro-1H-pyrrolo[2,3-b]pyridin-5-yl)oxy)-1-methyl-1H-imidazo[4,5-b]pyridin-2-yl)amino)-1-methyl-5-(trifluoromethyl)pyridin-2(1H)-one] the value was 10 to 50 nM; for `Cn1cc(C(F)(F)F)cc(Nc2nc3ncc(Oc4cnc5[nH]cc(F)c5c4)c(C#N)c3n2C)c1=O` [Example I-289, 6-((3-fluoro-1H-pyrrolo[2,3-b]pyridin-5-yl)oxy)-1-methyl-2-((1-methyl-2-oxo-5-(trifluoromethyl)-1,2-dihydropyridin-3-yl)amino)-1H-imidazo[4,5-b]pyridine-7-carbonitrile], 10 to 50 nM; for `Cc1cc2cc(Oc3cnc4nc(Nc5cc(C(F)(F)F)cn(C)c5=O)n(C)c4c3C#N)cnc2[nH]1` [Example I-290, 1-methyl-6-((2-methyl-1H-pyrrolo[2,3-b]pyridin-5-yl)oxy)-2-((1-methyl-2-oxo-5-(trifluoromethyl)-1,2-dihydropyridin-3-yl)amino)-1H-imidazo[4,5-b]pyridine-7-carbonitrile], 10 to 50 nM.
`COc1ccc2c(Oc3cnc4nc(Nc5cc(C(F)(F)F)cn(C)c5=O)n(C)c4c3C#N)cnn2c1` [Example I-291, 6-((6-methoxypyrazolo[1,5-a]pyridin-3-yl)oxy)-1-methyl-2-((1-methyl-2-oxo-5-(trifluoromethyl)-1,2-dihydropyridin-3-yl)amino)-1H-imidazo[4,5-b]pyridine-7-carbonitrile]: the Kd is less than 10 nM.
For `Cn1cc(C(F)(F)F)cc(Nc2nc3ncc(Oc4cnn5cc(C#N)ccc45)c(Cl)c3n2C)c1=O` [Example I-292, 3-((7-chloro-1-methyl-2-((1-methyl-2-oxo-5-(trifluoromethyl)-1,2-dihydropyridin-3-yl)amino)-1H-imidazo[4,5-b]pyridin-6-yl)oxy)pyrazolo[1,5-a]pyridine-6-carbonitrile] the value was less than 10 nM; for `Cc1cc2cc(Oc3cnc4nc(Nc5cc(C(F)(F)F)cn(C)c5=O)n(C)c4c3Cl)cnc2[nH]1` [Example I-293, 3-((7-chloro-1-methyl-6-((2-methyl-1H-pyrrolo[2,3-b]pyridin-5-yl)oxy)-1H-imidazo[4,5-b]pyridin-2-yl)amino)-1-methyl-5-(trifluoromethyl)pyridin-2(1H)-one], 10 to 50 nM.
As for `Cn1cc(C(F)(F)F)cc(Nc2nc3ncc(Oc4cnc5[nH]c(C6CC6)cc5c4)c(Cl)c3n2C)c1=O` [Example I-294, 3-((7-chloro-6-((2-cyclopropyl-1H-pyrrolo[2,3-b]pyridin-5-yl)oxy)-1-methyl-1H-imidazo[4,5-b]pyridin-2-yl)amino)-1-methyl-5-(trifluoromethyl)pyridin-2(1H)-one], the Kd lay within 10 to 50 nM.
